System: hypertensive subjects
Test: Seated automated office blood pressure (AOBP) in randomized, placebo-controlled, dose-ranging study
Assay type: in vivo, human
Set-up: Difference from placebo in change in blood pressure: unit not given here
Method: A randomized, double-blinded, placebo-controlled, dose-ranging, multicenter study was conducted to evaluate the effect of orally administered Compound A HBr on blood pressure for the treatment of hypertension in male and female subjects ≥18 years of age.
The study consists of two parts. For enrollment into Part 1 of the study, a subject's value of plasma renin activity (PRA) must be ≤1 ng/mL/h based on morning measurement. If the value of PRA >1 ng/mL/h based on morning measurement, then subjects may be eligible to enter Part 2 of the study.
For Part 1, 163 enrolled subjects ≥18 years of age were randomized into 6 equal treatment groups (1:1:1:1:1:1) to 12.5 mg BID, 25 mg BID, 12.5 mg QD, 50 mg QD, 100 mg QD, or placebo. After a review of interim clinical data, the 2 lowest dose levels (12.5 mg QD and 12.5 mg BID) were stopped for future randomization due to a lack of consistent meaningful reduction of blood pressure, but the patients randomized to that point remained in the study through completion. Thus, after the review of interim clinical data, subjects were randomized into 4 equal treatment groups (1:1:1:1) to 25 mg BID, 50 mg QD, 100 mg QD, or placebo.
For Part 2, 36 enrolled subjects ≥18 years of age were randomized (5:1) to either 100 mg QD Compound A HBr or placebo such that the Compound A HBr treatment group consisted of approximately 30 subjects and the placebo treatment group will consist of approximately 6 subjects.
Subjects orally administered the assigned study drug (Compound A HBr or placebo) according to the assigned dosing regimen for 8 weeks beginning on Study Day 1. All subjects in Part 1 (regardless of dosing group) received BID dosing to preserve the integrity of the blind; active drug is administered as the morning dose for all QD dose groups. Subjects returned to the research facility or were seen by the clinical investigator or approved home health care professional at the end of Study Weeks 1, 2, 3, 4, 5, 6, 7, and 8 (±2 days) for protocol-defined efficacy and safety assessments and procedures, assessment of adverse events (AEs), and confirmation of compliance with study drug usage. Subjects also completed a telephone visit and blood pressure (BP) check at home approximately 3 days post last dose of study drug. Subjects attended up to 14 full clinic visits, including a pre-Screening visit, a Screening/start of Placebo Run-in visit, a second visit during Placebo Run-in, a clinic visit to initiate the ABPM procedure, a Randomization visit, 8 weekly visits during double-blind treatment, and an end-of-study visit scheduled 4 weeks after the last study treatment for final efficacy and safety assessments.
An automated oscillometric sphygmomanometer device was used to measure the subjects' systolic and diastolic blood pressure in office after approximately 5 minutes of rest in the seated position.
The primary endpoint is the change in office-measured (mean of last 2 of 5 unattended measurements using an automated oscillometric sphygmomanometer device after approximately 5 minutes of rest in the seated position) systolic blood pressure (SBP) from baseline to the end of Study Week 8.
Secondary endpoints of this study were: • (a) Change in 24-hour ambulatory blood pressure monitoring (ABPM) parameters (systolic and diastolic) from baseline to the end of Study Week 7. • (b) Change in office-measured SBP from baseline to the end of Study Weeks 1, 2, 3, 4, 5, 6, and 7. • (c) Change in office-measured diastolic blood pressure (DBP) from baseline to the end of Study Weeks 1, 2, 3, 4, 5, 6, 7, and 8. • (d) Proportion of subjects who achieve office-measured BP of ≤130/80 mm Hg by the end of Study Week 8.

[1] = 12.5 mg BID, Week 1, Part 1, FAS
[2] = 12.5 mg BID, Week 2, Part 1, FAS
[3] = 12.5 mg BID, Week 3, Part 1, FAS
[4] = 12.5 mg BID, Week 4, Part 1, FAS
[5] = 12.5 mg BID, Week 5, Part 1, FAS
[6] = 12.5 mg BID, Week 6, Part 1, FAS
[7] = 12.5 mg BID, Week 7, Part 1, FAS
[8] = 12.5 mg BID, Week 8, Part 1, FAS

CC(=O)N[C@H]1CC[C@H](NC(=O)CN2CCN(c3nncc(-c4ccc(C)cc4)n3)CC2)CC1 [Compound A HBr]
Difference from placebo in change in blood pressure (12.5 mg BID, BMI 25-30): −3.5
Difference from placebo in change in blood pressure (12.5 mg BID, BMI >30): −10.1
Difference from placebo in change in blood pressure (12.5 mg BID, Thiazide No): −1.4
Difference from placebo in change in blood pressure (12.5 mg BID, Thiazide Yes): −10.6
Seated AOBP DBP change from baseline (CFB), Mean (SD) [1]: −5.95 (6.17) mmHg
Seated AOBP DBP, Mean (SD) [1]: 75.59 (8.32) mmHg
Seated AOBP SBP change from baseline (CFB), Mean (SD) [1]: −8.89 (11.51) mmHg
Seated AOBP SBP, Mean (SD) [1]: 135.68 (14.48) mmHg
Seated AOBP DBP change from baseline (CFB), Mean (SD) [2]: −7.32 (9.14) mmHg
Seated AOBP DBP, Mean (SD) [2]: 74.23 (10.15) mmHg
Seated AOBP SBP change from baseline (CFB), Mean (SD) [2]: −11.98 (13.02) mmHg
Seated AOBP SBP, Mean (SD) [2]: 132.59 (14.70) mmHg
Seated AOBP DBP change from baseline (CFB), Mean (SD) [3]: −0.93 (7.51) mmHg
Seated AOBP DBP, Mean (SD) [3]: 79.95 (9.17) mmHg
Seated AOBP SBP change from baseline (CFB), Mean (SD) [3]: −5.80 (9.60) mmHg
Seated AOBP SBP, Mean (SD) [3]: 137.70 (15.37) mmHg
LSM Δ with Placebo, seated AOBP DBP (MMRM) [4]: −4.48 mmHg
Modelled (MMRM) LSM (SEM) change from baseline, seated AOBP DBP [4]: −5.02 (1.67) mmHg
Seated AOBP DBP change from baseline (CFB), Mean (SD) [4]: −4.18 (10.21) mmHg
Seated AOBP DBP, Mean (SD) [4]: 75.79 (10.69) mmHg
Seated AOBP SBP change from baseline (CFB), Mean (SD) [4]: −10.71 (12.27) mmHg
Seated AOBP SBP, Mean (SD) [4]: 132.95 (15.79) mmHg
Seated AOBP DBP change from baseline (CFB), Mean (SD) [5]: −7.00 (7.81) mmHg
Seated AOBP DBP, Mean (SD) [5]: 73.50 (10.13) mmHg
Seated AOBP SBP change from baseline (CFB), Mean (SD) [5]: −12.53 (13.34) mmHg
Seated AOBP SBP, Mean (SD) [5]: 131.44 (13.13) mmHg
Seated AOBP DBP change from baseline (CFB), Mean (SD) [6]: −6.47 (6.39) mmHg
Seated AOBP DBP, Mean (SD) [6]: 74.95 (10.29) mmHg
Seated AOBP SBP change from baseline (CFB), Mean (SD) [6]: −14.00 (14.80) mmHg
Seated AOBP SBP, Mean (SD) [6]: 129.79 (15.24) mmHg
Seated AOBP DBP change from baseline (CFB), Mean (SD) [7]: −5.76 (7.62) mmHg
Seated AOBP DBP, Mean (SD) [7]: 74.21 (9.64) mmHg
Seated AOBP SBP change from baseline (CFB), Mean (SD) [7]: −11.76 (13.06) mmHg
Seated AOBP SBP, Mean (SD) [7]: 131.89 (11.93) mmHg
LSM Δ from Placebo, change from baseline in seated AOBP SBP (MMRM) [8]: −7.2 mmHg
LSM Δ with Placebo, seated AOBP DBP (MMRM) [8]: −3.84 mmHg
Modelled (MMRM) LSM (SEM) change from baseline, seated AOBP DBP [8]: −5.47 (2.02) mmHg
Modelled (MMRM) LSM (SEM) change from baseline, seated AOBP SBP [8]: −11.30 (3.15) mmHg
Seated AOBP DBP change from baseline (CFB), Mean (SD) [8]: −5.84 (8.78) mmHg
Seated AOBP DBP, Mean (SD) [8]: 75.21 (10.07) mmHg
Seated AOBP SBP change from baseline (CFB), Mean (SD) [8]: −13.79 (17.70) mmHg
Seated AOBP SBP, Mean (SD) [8]: 131.89 (12.93) mmHg
Subjects with seated AOBP SBP/DBP ≤130/80 mmHg: No [8]: 15 (68.2) n (%)
Subjects with seated AOBP SBP/DBP ≤130/80 mmHg: Yes [8]: 7 (31.8) n (%)
Difference from placebo in change in blood pressure (12.5 mg QD, BMI 25-30): −.14
